From PubChem BioAssay AID330 (DTP/NCI, 2004)
Values joined by “and” are separate entries in the source; they are usually repeats but may differ in a detail not shown here. Equal entries are not always repeated. Toxic doses and inconclusive results are not listed.

Tested on: P388 leukemia ip, CD2F1 mice, survival T/C
Test: NCI In Vivo Anticancer Drug Screen. Data for tumor model P388 Leukemia (intraperitoneal) in CD2F1 (CDF1) mice
Conditions: endpoint: median survival time, higher = longer survival
Outline: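 Mice carrying the transplanted tumor received test compound or vehicle. Survival was recorded in each group, and the value is the treated-group measurement divided by that of the vehicle-treated control group.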

[1] = dose: 3.12 mg/kg/injection, schedule: Q01DX009 (ip), vehicle: saline with Tween-80
[2] = dose: 12.5 mg/kg/injection, schedule: Q01DX009 (ip), vehicle: saline with Tween-80
[3] = dose: 25.0 mg/kg/injection, schedule: Q01DX009 (ip), vehicle: saline with Tween-80
[4] = dose: 12.5 mg/kg/injection, schedule: Q01DX009 (ip), vehicle: water
[5] = dose: 25.0 mg/kg/injection, schedule: Q01DX009 (ip), vehicle: water
[6] = dose: 50.0 mg/kg/injection, schedule: Q01DX005 (ip), vehicle: saline with Tween-80
[7] = dose: 100.0 mg/kg/injection, schedule: Q01DX005 (ip), vehicle: saline with Tween-80
[8] = dose: 200.0 mg/kg/injection, schedule: Q01DX005 (ip), vehicle: saline with Tween-80
[9] = dose: 50.0 mg/kg/injection, schedule: Q01DX009 (ip), vehicle: saline with Tween-80

O=C1N[C@H]2[C@H](O)[C@H](O)[C@@H](O)[C@H](O)[C@@H]2c2cc3c(c(O)c21)OCO3 was tested, and the T/C (dose: 0.18 mg/kg/injection, schedule: Q01DX009 (ip), vehicle: saline + Tween-80 + alcohol) was 113 % of control, the T/C (dose: 0.37 mg/kg/injection, schedule: Q01DX009 (ip), vehicle: saline + Tween-80 + alcohol) was 122 % of control and the T/C (dose: 0.38 mg/kg/injection, schedule: Q01DX005 (iv), vehicle: other) was 105 % of control. For the same compound, the T/C (dose: 0.38 mg/kg/injection, schedule: Q01DX009 (ip), vehicle: saline + alcohol) was 119 % of control, the T/C (dose: 0.75 mg/kg/injection, schedule: Q01DX005 (ip), vehicle: other) was 122 % of control and the T/C (dose: 0.75 mg/kg/injection, schedule: Q01DX005 (ip), vehicle: saline + alcohol) was 116 % of control. The T/C (dose: 0.75 mg/kg/injection, schedule: Q01DX005 (iv), vehicle: other) was 105 % of control, the T/C (dose: 1.5 mg/kg/injection, schedule: Q01DX005 (iv), vehicle: other) was 106 % of control and the T/C (dose: 3.0 mg/kg/injection, schedule: Q01DX005 (iv), vehicle: other) was 108 % of control. For the same compound, the T/C (dose: 3.0 mg/kg/injection, schedule: Q01DX009 (ip), vehicle: saline + Tween-80 + alcohol) was 160 % of control, the T/C (dose: 3.0 mg/kg/injection, schedule: Q01DX009 (ip), vehicle: saline + alcohol) was 161 % of control and the T/C (dose: 3.12 mg/kg/injection, schedule: Q01DX009 (ip), vehicle: saline + alcohol) was 151 % of control. The T/C (dose: 6.0 mg/kg/injection, schedule: Q01DX005 (ip), vehicle: other) was 152 % of control, the T/C (dose: 6.0 mg/kg/injection, schedule: Q01DX005 (iv), vehicle: other) was 121 % of control and the T/C (dose: 6.0 mg/kg/injection, schedule: Q01DX009 (ip), vehicle: saline + Tween-80 + alcohol) was 162 % of control. For the same compound, the T/C (dose: 6.0 mg/kg/injection, schedule: Q01DX009 (ip), vehicle: saline + alcohol) was 165 % of control, the T/C (dose: 6.25 mg/kg/injection, schedule: Q01DX005 (ip), vehicle: saline + alcohol) was 105 % of control and the T/C (dose: 6.25 mg/kg/injection, schedule: Q01DX009 (ip), vehicle: saline + alcohol) was 155 % of control and 173 % of control. For the same compound, the T/C (dose: 12.0 mg/kg/injection, schedule: Q01DX005 (ip), vehicle: other) was 155 % of control, the T/C (dose: 12.0 mg/kg/injection, schedule: Q01DX005 (ip), vehicle: saline + alcohol) was 156 % of control and the T/C (dose: 12.5 mg/kg/injection, schedule: Q01DX009 (ip), vehicle: saline + alcohol) was 203 % of control.

For COc1ccc2c3c1OC1C(O)C=CC4C(C2)N(C)CCC341 (centres undefined), the T/C [1] was 102 % of control, the T/C (dose: 6.25 mg/kg/injection, schedule: Q01DX009 (ip), vehicle: saline with Tween-80) was 105 % of control and the T/C [2] was 112 % of control. For the same compound, the T/C [3] was 114 % of control.

In the case of O=C1N(CCN2CCC3(CC2)OCCO3)CCN1c1cc(Cl)cc(Cl)c1, the T/C [4] is reported as 104 % of control and 105 % of control and 113 % of control, the T/C [5] is reported as 105 % of control and 112 % of control and 123 % of control and the T/C (dose: 100.0 mg/kg/injection, schedule: Q01DX009 (ip), vehicle: water) is reported as 105 % of control and 110 % of control. For the same compound, the T/C (dose: 200.0 mg/kg/injection, schedule: Q01DX009 (ip), vehicle: water) was 108 % of control.

In the case of O=C1CCC2OC3CCC(=O)N3CN12 (centres undefined), the T/C [6] is reported as 97 % of control, the T/C [7] is reported as 98 % of control and the T/C [8] is reported as 98 % of control.

In the case of N=C(N)c1nn(C2OC(CO)C(O)C2O)c2nc[nH]c(=O)c12 (centres undefined), the T/C (dose: 12.5 mg/kg/injection, schedule: Q01DX005 (ip), vehicle: saline with Tween-80) is reported as 121 % of control and the T/C (dose: 25.0 mg/kg/injection, schedule: Q01DX005 (ip), vehicle: saline with Tween-80) is reported as 124 % of control.

With C[n+]1c(-c2cc(Cl)cc(Cl)c2)c2cc(N)ccc2c2ccccc21 the T/C (dose: 3.13 mg/kg/injection, schedule: Q01DX009 (ip), vehicle: water) was 120 % of control, the T/C (dose: 6.25 mg/kg/injection, schedule: Q01DX009 (ip), vehicle: water) was 122 % of control and the T/C [4] was 114 % of control. The T/C [5] was 102 % of control.

For Cc1ccc(Oc2nc(=O)c3c(o2)CC(C)(C)C3)cc1, the T/C [2] was 106 % of control, the T/C [3] was 106 % of control and 112 % of control and the T/C [9] was 103 % of control and 106 % of control and 114 % of control. For the same compound, the T/C (dose: 100.0 mg/kg/injection, schedule: Q01DX009 (ip), vehicle: saline with Tween-80) was 120 % of control and 96 % of control.

CC(=O)OC(C)/C=C\C#N (centres undefined) was tested, and the T/C (dose: 15.0 mg/kg/injection, schedule: Q01DX005 (ip), vehicle: saline) was 98 % of control and 104 % of control and 86 % of control and the T/C (dose: 30.0 mg/kg/injection, schedule: Q01DX005 (ip), vehicle: saline) was 98 % of control and 100 % of control and 96 % of control.

In the case of O=S1(=O)CC(Cl)(Cl)C1, the T/C [6] is reported as 102 % of control and the T/C [7] is reported as 109 % of control.

Nc1ncnc2c1C=C(B(O)O)B(O)N2 was tested, and the T/C (dose: 6.25 mg/kg/injection, schedule: Q01DX009 (ip), vehicle: Klucel (hydroxypropylcellulose) (HPC)) was 97 % of control, the T/C (dose: 12.5 mg/kg/injection, schedule: Q01DX009 (ip), vehicle: Klucel (hydroxypropylcellulose) (HPC)) was 99 % of control and the T/C (dose: 25.0 mg/kg/injection, schedule: Q01DX009 (ip), vehicle: Klucel (hydroxypropylcellulose) (HPC)) was 104 % of control.

For COC(CC[S+](C)C)C(=O)O (centres undefined), the T/C (dose: 32.0 mg/kg/injection, schedule: Q01DX005 (ip), vehicle: water) was 105 % of control, the T/C (dose: 64.0 mg/kg/injection, schedule: Q01DX005 (ip), vehicle: water) was 97 % of control and the T/C (dose: 128.0 mg/kg/injection, schedule: Q01DX005 (ip), vehicle: water) was 102 % of control. For the same compound, the T/C (dose: 256.0 mg/kg/injection, schedule: Q01DX005 (ip), vehicle: water) was 101 % of control.

With CNC1C(=O)C(C)C(O)(C(CC(C)C(O)/C=C/C=C/CNC(=O)C(C)(C)C(O)\C(C)=C/C=C\C=C\Cc2cnc(C)o2)OC)C12C(=O)OC2COC (centres undefined) (tested in a mixture with another compound) the T/C (dose: 1.0 mg/kg/injection, schedule: Q01DX005 (ip), vehicle: DMSO) was 104 % of control and the T/C (dose: 2.0 mg/kg/injection, schedule: Q01DX005 (ip), vehicle: DMSO) was 93 % of control.

In the case of COc1ccc(N2C(=O)CC(c3cc(OC)c(OC)c(OC)c3)CC2=O)cc1, the T/C (dose: 50.0 mg/kg/injection, schedule: Q01DX005 (ip), vehicle: Klucel (hydroxypropylcellulose) (HPC)) is reported as 94 % of control, the T/C (dose: 100.0 mg/kg/injection, schedule: Q01DX005 (ip), vehicle: Klucel (hydroxypropylcellulose) (HPC)) is reported as 89 % of control and the T/C (dose: 200.0 mg/kg/injection, schedule: Q01DX005 (ip), vehicle: Klucel (hydroxypropylcellulose) (HPC)) is reported as 90 % of control.

For C=C(C)C(=O)OC1C/C(CO)=C\C(OC(C)=O)C/C(C)=C/C2OC(=O)C(=C)C21 (centres undefined), the T/C (dose: 3.75 mg/kg/injection, schedule: Q01DX009 (ip), vehicle: saline + alcohol) was 113 % of control, the T/C (dose: 7.5 mg/kg/injection, schedule: Q01DX009 (ip), vehicle: saline + alcohol) was 115 % of control and the T/C (dose: 15.0 mg/kg/injection, schedule: Q01DX009 (ip), vehicle: saline + alcohol) was 120 % of control.

CCOc1c(N=Nc2ccccc2C)c(-c2ccccc2)nn1C(N)=S was tested, and the T/C [6] was 90 % of control, the T/C [7] was 88 % of control and the T/C [8] was 90 % of control.

In the case of N#CN(Cc1ccccc1)Cc1ccccc1.[Cl][Sn]([c]1ccccc1)([c]1ccccc1)[c]1ccccc1, the T/C (dose: 3.12 mg/kg/injection, schedule: Q01DX005 (ip), vehicle: saline with Tween-80) is reported as 98 % of control and the T/C (dose: 6.25 mg/kg/injection, schedule: Q01DX005 (ip), vehicle: saline with Tween-80) is reported as 95 % of control.

C=CCC(C)(C#N)C1C=CCC1 (centres undefined) was tested, and the T/C (dose: 100.0 mg/kg/injection, schedule: Q01DX009 (ip), vehicle: saline sonified) was 100 % of control, the T/C (dose: 200.0 mg/kg/injection, schedule: Q01DX009 (ip), vehicle: saline sonified) was 100 % of control and the T/C (dose: 400.0 mg/kg/injection, schedule: Q01DX009 (ip), vehicle: saline sonified) was 122 % of control.

COC1=C(N=[N+]=[N-])C(=O)c2ncccc2C1=O was tested, and the T/C (dose: 0.63 mg/kg/injection, schedule: Q01DX009 (ip), vehicle: DMSO) was 100 % of control, the T/C (dose: 1.25 mg/kg/injection, schedule: Q01DX009 (ip), vehicle: DMSO) was 100 % of control and the T/C (dose: 1.56 mg/kg/injection, schedule: Q01DX009 (ip), vehicle: saline with Tween-80) was 95 % of control. The T/C (dose: 2.5 mg/kg/injection, schedule: Q01DX009 (ip), vehicle: DMSO) was 107 % of control, the T/C [1] was 98 % of control and the T/C (dose: 5.0 mg/kg/injection, schedule: Q01DX009 (ip), vehicle: DMSO) was 100 % of control.

In the case of CC(=O)CS(F)(F)(F)(F)F, the T/C [6] is reported as 105 % of control.

With [N-]=[N+]=NC(=O)c1cccs1 the T/C [2] was 100 % of control, the T/C [3] was 101 % of control and the T/C [9] was 100 % of control.
